This is an account of results in patent US9771336B2, “Tetrazole based corrosion inhibitors” (Ecolab USA Inc., priority 2013, dated 2017).

The nature of data set [1]: Copper corrosion rate with and without bleach in a cooling water environment.
Data set [2] in a line: Solubility (turbidity) of 2% solutions at various pH. The note with it: 2% solution in RO water. The class given is physicochemical.
Data set [3] can be described thus: Pimephales promelas 96-Hour Definitive Toxicity Test. The class given is in vivo. The note with it: Pimephales promelas, in vivo, other: waterborne exposure in test solution; composition of BDTZ. How it is done:
(§1) A composition of the invention including a BDTZ tetrazole component was evaluated using the Pimephales promelas 96-Hour Definitive Toxicity Test. Pimephales promelas used to initiate this test were obtained from in-house cultures and were 1 to 14 days old at test initiation. Test organisms were maintained in 100 percent control water (reconstituted moderately hard water) prior to test initiation. The 96-Hour Definitive Test was conducted using 300 to 500 milliliter (mL) disposable polypropylene containers containing 250 ml of control water or appropriate test solution. Ten test organisms were randomly introduced into each test chamber with two replicate chambers per treatment. Each Pimephales promelas test chamber was fed 0.1 mL of a concentrated suspension of less than 24-hour old live brine shrimp nauplii (Artemia sp.) several hours prior to the 48-hour testing period.
(§2) At the 48-hour testing period, test solutions were renewed by replacing approximately 90 percent of the old solution with fresh control water or appropriate test solution. Prior to renewal of test solutions, uneaten and dead brine shrimp, along with other debris, were removed from the bottom of the test chambers. Organism survival was determined daily by enumerating live Pimephales promelas in each test chamber. Survival was defined as any body movement after gentle prodding.
(§3) The test was conducted at a temperature of 20±1° C. under fluorescent lighting with a photoperiod of 16 hours light and 8 hours dark. Water quality measurements were performed on all control and test solutions prior to test initiation and on selected treatments daily thereafter.
(§4) Following termination of the 96-Hour Definitive Test, No Observed Effect Concentration (NOEC) and a 96-hour LC50 with corresponding 95 percent confidence interval were calculated, where possible. The NOEC value was determined using the statistically appropriate method. The LC50 value estimate was determined by using one of the following statistical methods: graphical, Spearman-Karber, Trimmed Spearman-Karber, or Probit. The method selected for reporting test results was determined by the characteristics of the data; that is, the presence or absence of 0 and 100 percent mortality and the number of concentrations in which mortalities between 0 and 100 percent occurred. All statistical analyses were performed using the CETIS™ Version 1.8.5.4 software program.
(§5) The reference toxicant, sodium chloride, was used to monitor the sensitivity of the test organisms and the precision of the testing procedure. Acute reference toxicant tests are performed at least monthly and the resulting LC50 values are plotted to determine if the results are within prescribed limits.

The subject of the next data set is Pimephales promelas. The description is as above. The class given is in vivo. Conditions: 96-hour test. How it is done:
as §1, §2, §3, §4, §5

Data set [4] is described as follows: Mild steel corrosion rate (interaction with Cu2+). The note with it: FIG. 12; compared with no HDTZ. The text has this:
Tetrazoles disclosed herein have a positive effect on mild steel corrosion. […] The proposed mechanism of action is suspected to be indirect: the likely interpretation is that HDTZ inactivates Cu^2+ in solution preventing the occurrence of galvanic cells on the coupon surface (lower corrosion rate), which could grow with time (stabilization of the corrosion rate).

For data set [5] the following is noted: 3 ppm inhibitor, synthetic cooling water, 38° C., three hours.
[6] abbreviates: average copper corrosion rate, inhibitor concentration 5 ppm, with bleach.
[7] abbreviates: average copper corrosion rate, inhibitor concentration 5 ppm, without bleach.

Read-outs that look alike come from different tables or passages of the source.

For orientation: LC50 means the concentration that kills 50% of the test population. A low value points to a more lethal substance. As a reminder, the melting point is the temperature of the solid-liquid transition.

For `CCCCc1ccc2[nH]nnc2c1` [BBT, 5-butyl-1H-benzotriazole, reference compound], the “Corrosion Rate (mpy) with Bleach (1 FRC)” value in data set [1] (setting [6]) is reported as 0.0189 mpy. Besides, the “Corrosion Rate (mpy) without Bleach” value in data set [1] (setting [7]) came out at 0.0024 mpy.
Turning to `C(CCc1nnn[nH]1)Cc1nnn[nH]1` [BDTZ, 1,4-di(1H-tetrazol-5-yl)butane], the “pH above which the solution remained clear” value in data set [2] (turbidity meter) is greater than 5.6. In data set [3], the LC50 at 96 h was greater than 10000 µg/mL. Moreover, the “Survival (%)” value was 100% in the data set with Pimephales promelas (composition of BDTZ, 625 mg/L as nominal); 100% with Pimephales promelas (composition of BDTZ, 1,250 mg/L as nominal); 100% in the data set on Pimephales promelas (composition of BDTZ, 2,500 mg/L as nominal); 100% in the data set on Pimephales promelas (composition of BDTZ, 5,000 mg/L as nominal); 100% in the data set on Pimephales promelas (composition of BDTZ, 10,000 mg/L as nominal). For the same compound, the NOEC with Pimephales promelas (composition of BDTZ) was 10,000 mg/L. The “Corrosion Rate (mpy) with Bleach (1 FRC)” value in data set [1] (setting [6]) worked out at 0.0841 mpy. Besides, the “Corrosion Rate (mpy) without Bleach” value in data set [1] (setting [7]) is on record as 0.0088 mpy.
For `c1ccc2[nH]nnc2c1` [BZT, 1H-benzotriazole, reference compound], the “Corrosion Rate (mpy) with Bleach (1 FRC)” value in data set [1] (setting [6]) is 0.1386 mpy. Moreover, the “Corrosion Rate (mpy) without Bleach” value in data set [1] (setting [7]) stood at 0.0032 mpy.
The like results for `Cc1cc2nn[nH]c2cc1Cl` [CITT, 5-methyl-6-chloro-1H-benzotriazole, reference compound] were, in that order, 0.0057 mpy and 0.0028 mpy.
`C(CCCc1nnn[nH]1)CCc1nnn[nH]1` [HDTZ, 1,6-di(1H-tetrazol-5-yl)hexane] came in with a melting point of 183.75 °C. Moreover, the “Corrosion Rate (mpy) with Bleach (1 FRC)” value in data set [1] (setting [6]) is recorded as 0.0204 mpy. Moreover, the “Corrosion Rate (mpy) without Bleach” value in data set [1] (setting [7]) is on record as 0.005 mpy. The “effect on mild steel corrosion rate” value in data set [4] is “stabilize the corrosion rate”.
`C(CCCc1nnn[nH]1)CCCc1nnn[nH]1` [HeDTZ, 1,7-di(1H-tetrazol-5-yl)heptane] gave a melting point of 144.19 °C. Further, the “Corrosion Rate (mpy) with Bleach (1 FRC)” value in data set [1] (setting [6]) is 0.027 mpy. The “Corrosion Rate (mpy) without Bleach” value in data set [1] (setting [7]) is 0.009 mpy.
As for `C(CCCCc1nnn[nH]1)CCCc1nnn[nH]1` [ODTZ, 1,8-di(1H-tetrazol-5-yl)octane], the “Corrosion Rate (mpy) with Bleach (1 FRC)” value in data set [1] turned out to be 0.032 mpy. Further, the “Corrosion Rate (mpy) without Bleach” value in data set [1] worked out at 0.026 mpy. In addition, the “% loss of inhibitor” value in data set [5] (1 ppm ActiBrom) was determined as 0.0%; in data set [5] (1 ppm Bleach) it was 2.6%; in data set [5] (1 ppm STABREX), 1.6%; in data set [5] (5 ppm ActiBrom), 1.3%; in data set [5] (5 ppm Bleach) it was 2.6%; in data set [5] (5 ppm STABREX) it was 2.6%.
`C(CCc1nnn[nH]1)CCc1nnn[nH]1` [PeDTZ, 1,5-di(1H-tetrazol-5-yl)pentane]: in data set [1], the “Corrosion Rate (mpy) with Bleach (1 FRC)” value is recorded as 0.145 mpy and the “Corrosion Rate (mpy) without Bleach” value is listed as 0.0012 mpy.
`Cc1ccc2[nH]nnc2c1` [TT, 5-methyl-1H-benzotriazole, reference compound]: in data set [2], the “pH above which soluble” value was “above 11.5” and the “pH to get a clear solution” value was 12.0. For the same compound, the “Corrosion Rate (mpy) with Bleach (1 FRC)” value in data set [1] (setting [6]) is on record as 0.0995 mpy. Further, the “Corrosion Rate (mpy) without Bleach” value in data set [1] (setting [7]) came out at 0.0214 mpy.
Consider “hydrogenated tolyltriazole [HTT, reference compound]”, for which the “Corrosion Rate (mpy) with Bleach (1 FRC)” value in data set [1] (setting [6]) was found to be 0.0187 mpy. Moreover, the “Corrosion Rate (mpy) without Bleach” value in data set [1] (setting [7]) stood at 0.0051 mpy.
